Test results taken from patent US7807845B2, “Resistance-repellent retroviral protease inhibitors” (priority 2004, dated 2010).

How the values were obtained:
wild type HIV PR = target: T1, wild type HIV PR (Human immunodeficiency virus type 1 group M subtype B, UniProt P04585); experiment: HIV PR inhibition assay, wild type; format: biochemical
T1 construct: Recombinant wild type and mutant HIV PRs were expressed using pET21 vector (Novagen) in E. coli cells; made in house
Experimental: (§1) Expression and purification of WT and mutant HIV PR. Recombinant wild type and mutant HIV PRs were expressed using pET21 vector (Novagen) in E. coli cells, and purified and refolded as described previously (Gulnik et al, 1995). The cells were resuspended in 50 mM tris-HCl buffer, pH 8.0, 25 mM NaCl, 0.2% β-mercaptoethanol (buffer A), sonicated and centrifuged. Inclusion bodies were washed first with buffer A, then with buffer A containing respectively 0.1% Triton X-100, 1 M NaCl, 1 M urea, and finally with buffer A alone. Purified inclusion bodies were solubilized by addition of buffer A containing 8 M urea at room temperature. The solution was clarified by centrifugation and loaded onto 2.6×9.5 cm Q-Sepharose column. Flow-through fractions were collected and dialyzed against 3 changes of refolding buffer, which consists of 25 mM Na-phosphate, pH 7.0, 25 mM NaCl, 0.2% β-mercaptoethanol and 10% glycerol, aliquoted and stored at −80° C.
(§2) Inhibition constants were determined using the fluorogenic substrate ArgGlu(EDANS)[…]DABCYL)Arg (Amichem, USA). HIV Protease was preincubated for 0.5-1 min at ambient temperature on a 96 well plate with different concentrations of inhibitor in 0.05 M sodium phosphate buffer, pH 6.5, containing 20 mM NaCl, 2 mM DTT and 0.01% Tween-20. The reaction was initiated by the addition of substrate. Final enzyme concentration was 2-5 nM for WT and 2-30 nM for mutants. Substrate concentration was 20 uM and DMSO concentration 2%. The increase in fluorescence intensity at the emission maximum of 520 nm (excitation wavelength 340 nm, cut-off filter 495 nm) was monitored as a function of time using a Spectramax Gemini fluorescence plate reader (Molecular Devices, CA USA). The initial rate of hydrolysis was calculated by first-degree polynomial fit using SoftMAX operating software. Data were fitted to the Michaelis-Menten equation for competitive inhibitors. For tight-binding inhibitors the data were fitted by nonlinear regression analysis to the equation V=V0/2Et({[Ki(1+S/Km)+It−Et]^2+4Ki(1+S/Km)Et}^1/2−[Ki(1+S/Km)+It−Et]) (Williams and Morrison, 1979) with the program GraFit, version 5 (Erithacus Software Limited, UK), where V and V0 are initial velocities with and without inhibitor, Km is the Michaelis-Menten constant and S, Et and It are the concentrations of substrate, active enzyme and inhibitor respectively.

mutant HIV PR (Mutant 8) = mutant HIV PR (Mutant 8) (Human immunodeficiency virus type 1 group M subtype B, UniProt P04585); experiment: HIV PR inhibition assay, Mutant 8; format: biochemical; details: read-out: Ki Mutant 8; recombinant mutant HIV PR, fluorogenic substrate, pH 6.5
Experimental: as §1, §2

mutant HIV PR (Mutant 9) = mutant HIV PR (Mutant 9) (Human immunodeficiency virus type 1 group M subtype B, UniProt P04585); experiment: HIV PR inhibition assay, Mutant 9; format: biochemical; details: read-out: Ki Mutant 9; recombinant mutant HIV PR, fluorogenic substrate, pH 6.5
Experimental: as §1, §2

[1] = target: mutant HIV PR (Mutant 10) (Human immunodeficiency virus type 1 group M subtype B, UniProt P04585); experiment: HIV PR inhibition assay, Mutant 10; format: biochemical; details: read-out: Ki Mutant 10; recombinant mutant HIV PR, fluorogenic substrate, pH 6.5
Experimental: as §1, §2

WT=HIVHXB2 = experiment: Antiviral assay in MT-4 cells (MTT), WT virus; format: cell-based, HIV; details: Human immunodeficiency virus 1, MT4, 120 h, HIVHXB2, 5 days
Experimental: (§3) MT-4 cells were obtained from the AIDS Research and Reference Reagent Program (ARRRP, Division of AIDS, NIAID, NIH: MT-4 from Dr. D. Richman). Cells were propagated in RPMI 1640 supplemented with 10% fetal bovine serum, 50U of penicillin and 50 μg of streptomycin per ml (Invitrogen, Carlsbad Calif.). The following HIV viruses were used for testing of antiviral potency of compounds: WT=HIVHXB2; recombinant HIVHXB2 virus from drug resistant patient isolates; HIVmutant10 (16 mutations); HIVmutant8 (14 mutations); HIVmutant9 (10 mutations).
(§4) The potency of test compound was determined as previously described (ref 1-3) with minor modifications. MT-4 cells (1.5×10^4/ml) were exposed to 200 50 % tissue culture infective doses (TCID50) of viruses in the presence of various concentrations of test compound in 96 well microtiter plates and incubated at 37° C. for 5 days. 3-(4,5-dimethylthiazol-2-yl)-2,5-diphenytetrazolium bromide (MTT) solution was added to a final concentration of 0.75 mg/ml, and plates were incubated 1 hour. After incubation cells were dissolved in isopropanol/Triton-X 100/HCl (1000:50:25) solution. Absorbance was monitored in a microplate reader (Spectramax, Molecular Devices) at 540 nm and 690 nm. Cytotoxicity of compounds was tested in a similar assay in the absence of virus.

[2] = tested on: HIVmutant8 (14 mutations); experiment: Antiviral assay in MT-4 cells (MTT), mutant 8 virus; format: cell-based, HIV; details: Human immunodeficiency virus 1, MT4, 120 h, read-out: IC50 Mutant 8
Experimental: as §3, §4

[3] = tested on: HIVmutant9 (10 mutations); experiment: Antiviral assay in MT-4 cells (MTT), mutant 9 virus; format: cell-based, HIV; details: Human immunodeficiency virus 1, MT4, 120 h, read-out: IC50 Mutant 9
Experimental: as §3, §4

[4] = tested on: HIVmutant10 (16 mutations); experiment: Antiviral assay in MT-4 cells (MTT), mutant 10 virus; format: cell-based, HIV; details: Human immunodeficiency virus 1, MT4, 120 h, read-out: IC50 Mutant 10
Experimental: as §3, §4

Compound | Ki (wild type HIV PR) | Ki (mutant HIV PR (Mutant 8)) | Ki (mutant HIV PR (Mutant 9)) | Ki [1] | IC50 (WT=HIVHXB2) | IC50 [2] | IC50 [3] | IC50 [4]
CC(C)CN(CC(O)C(Cc1ccccc1)NC(=O)OC1COC2OCCC12)S(=O)(=O)c1ccc2c(c1)C(=CNCC(F)(F)C(F)(F)C(F)(F)F)C(=O)N2 (centres unmarked) [Compound 125] | < 0.1 nM | < 0.3 nM | 0.17 nM | 1.2 nM | 14 nM | 37 nM | 24 nM | 39 nM
CC(C)CN(C[C@@H](O)[C@H](Cc1ccccc1)NC(=O)O[C@H]1CO[C@H]2OCC[C@H]21)S(=O)(=O)c1ccc2c(c1)/C(=C/NCC(C)(C)C)C(=O)N2 [Compound 22, [1-Benzyl-3-({3-[(2,2-dimethyl-propylamino)-methylene]-2-oxo-2,3-dihydro-1H-indole-5-sulfonyl}-isobutyl-amino)-2-hydroxy-propyl]-carbamic acid hexahydro-furo[2,3b]furan-3-yl ester] | < 0.1 nM | < 0.3 nM | 0.15 nM | < 1 nM | 4.5 nM | 13 nM | 9.5 nM | 27 nM
CC(C)CN(CC(O)C(Cc1ccccc1)NC(=O)OC1COC2OCCC12)S(=O)(=O)c1ccc2c(c1)C(=CNCCc1ccccn1)C(=O)N2 (centres unmarked) [Compound 76, [1-Benzyl-2-hydroxy-3-(isobutyl-{2-oxo-3-[(2-pyridin-2-yl-ethylamino)-methylene]-2,3-dihydro-1H-indole-5-sulfonyl}-amino)-propyl]-carbamic acid hexahydro-furo[2,3-b]furan-3-yl ester] | < 0.1 nM | < 0.3 nM | < 0.1 nM | < 1 nM | 33 nM | 61 nM | 35 nM | 28 nM
CC(C)CN(CC(O)C(Cc1ccccc1)NC(=O)OC1COC2OCCC12)S(=O)(=O)c1ccc2c(c1)C(=CNC1CCC1)C(=O)N2 (centres unmarked) [Compound 114] | < 0.1 nM | < 0.3 nM | 0.15 nM | 1.2 nM | 17 nM | 30 nM | 31 nM | 115 nM
CC(C)CN(CC(O)C(Cc1ccccc1)NC(=O)OC1COC2OCCC12)S(=O)(=O)c1ccc2c(c1)C(=CNCCCCc1ccccc1)C(=O)N2 (centres unmarked) [Compound 78, [1-Benzyl-2-hydroxy-3-(isobutyl-{2-oxo-3-[(4-phenyl-butylamino)-methylene]-2,3-dihydro-1H-indole-5-sulfonyl}-amino)-propyl]-carbamic acid hexahydro-furo[2,3-b]furan-3-yl ester] | < 0.1 nM | < 0.3 nM | < 0.1 nM | < 1 nM | 11 nM | 55 nM | 17 nM | 105 nM
CCCN(C=C1C(=O)Nc2ccc(S(=O)(=O)N(CC(C)C)CC(O)C(Cc3ccccc3)NC(=O)OC3COC4OCCC34)cc21)CC (centres unmarked) [Compound 106] | < 0.1 nM | < 0.3 nM | < 0.1 nM | < 1 nM | 21 nM | 30 nM | 20 nM | 60 nM
CCCCN(C=C1C(=O)Nc2ccc(S(=O)(=O)N(CC(C)C)CC(O)C(Cc3ccccc3)NC(=O)OC3COC4OCCC34)cc21)CC (centres unmarked) [Compound 118] | < 0.1 nM | < 0.3 nM | < 0.1 nM | 1.9 nM | 13 nM | 40 nM | 15 nM | 60 nM
CCCN(C=C1C(=O)Nc2ccc(S(=O)(=O)N(CC(C)C)CC(O)C(Cc3ccccc3)NC(=O)OC3COC4OCCC34)cc21)CCC (centres unmarked) [Compound 32, {1-Benzyl-3-[(3-dipropylaminomethylene-2-oxo-2,3-dihydro-1H-indole-5-sulfonyl)-isobutyl-amino]-2-hydroxy-propyl}-carbamic acid hexahydro-furo[2,3-b]furan-3-yl ester] | < 0.1 nM | < 0.3 nM | < 0.1 nM | < 1 nM | 10 nM | 24 nM | 12 nM | 58 nM
CCc1cccc(NC=C2C(=O)Nc3ccc(S(=O)(=O)N(CC(C)C)CC(O)C(Cc4ccccc4)NC(=O)OC4COC5OCCC45)cc32)n1 (centres unmarked) [Compound 112] | < 0.1 nM | < 0.3 nM | 0.17 nM | 6.4 nM | 7 nM | 50 nM | 30 nM | 200 nM
CCNC(C)=C1C(=O)Nc2ccc(S(=O)(=O)N(CC(C)C)CC(O)C(Cc3ccccc3)NC(=O)OC3COC4OCCC34)cc21 (centres unmarked) [Compound 43, (1-Benzyl-3-{[3-(1-ethylamino-ethylidene)-2-oxo-2,3-dihydro-1H-indole-5-sulfonyl]-isobutyl-amino}-2-hydroxy-propyl)-carbamic acid hexahydro-furo[2,3-b]furan-3-yl ester] | < 0.1 nM | < 0.3 nM | < 0.1 nM | < 1 nM | 7 nM | 23 nM | 9 nM | 65 nM
CNC(C)=C1C(=O)Nc2ccc(S(=O)(=O)N(CC(C)C)CC(O)C(Cc3ccccc3)NC(=O)OC3COC4OCCC34)cc21 (centres unmarked) [Compound 41, (1-Benzyl-2-hydroxy-3-{isobutyl-[3-(1-methylamino-ethylidene)-2-oxo-2,3-dihydro-1H-indole-5-sulfonyl]-amino}-propyl)-carbamic acid hexahydro-furo[2,3-b]furan-3-yl ester] | < 0.1 nM | < 0.3 nM | < 0.1 nM | < 1 nM | 10 nM | 29 nM | 17 nM | 56 nM
CC(C)CN(CC(O)C(Cc1ccccc1)NC(=O)OC1COC2OCCC12)S(=O)(=O)c1ccc2c(c1)C(=CNC1CCCCC1)C(=O)N2 (centres unmarked) [Compound 107] | < 0.1 nM | < 0.3 nM | 0.21 nM | 1.2 nM | 13 nM | 39 nM | 28 nM | 110 nM
CC(C)CNC=C1C(=O)Nc2ccc(S(=O)(=O)N(CC(C)C)CC(O)C(Cc3ccccc3)NC(=O)OC3COC4OCCC34)cc21 (centres unmarked) [Compound 60, (1-Benzyl-2-hydroxy-3-{isobutyl-[3-(isobutylamino-methylene)-2-oxo-2,3-dihydro-1H-indole-5-sulfonyl]-amino}-propyl)-carbamic acid hexahydro-furo[2,3-b]furan-3-yl ester] | < 0.1 nM | < 0.3 nM | 0.15 nM | < 1 nM | 7.5 nM | 16 nM | 9.5 nM | 33 nM
